According to US10501421B1, “Substituted benzimidazoles as modulators of Ras signaling” (VANDERBILT UNIVERSITY, priority 2017, dated 2019):

Key:
Son of Sevenless (SOS) = biological target: T1, Son of Sevenless (SOS) (Homo sapiens, UniProt Q07889); assay: Binding to SOS, fluorescence polarization anisotropy (FPA) probe displacement; details: displacement of FITC-conjugated probe (Example 285), affinity calculated from IC50
T1 sequence (Q07889 564-1049 limits assumed): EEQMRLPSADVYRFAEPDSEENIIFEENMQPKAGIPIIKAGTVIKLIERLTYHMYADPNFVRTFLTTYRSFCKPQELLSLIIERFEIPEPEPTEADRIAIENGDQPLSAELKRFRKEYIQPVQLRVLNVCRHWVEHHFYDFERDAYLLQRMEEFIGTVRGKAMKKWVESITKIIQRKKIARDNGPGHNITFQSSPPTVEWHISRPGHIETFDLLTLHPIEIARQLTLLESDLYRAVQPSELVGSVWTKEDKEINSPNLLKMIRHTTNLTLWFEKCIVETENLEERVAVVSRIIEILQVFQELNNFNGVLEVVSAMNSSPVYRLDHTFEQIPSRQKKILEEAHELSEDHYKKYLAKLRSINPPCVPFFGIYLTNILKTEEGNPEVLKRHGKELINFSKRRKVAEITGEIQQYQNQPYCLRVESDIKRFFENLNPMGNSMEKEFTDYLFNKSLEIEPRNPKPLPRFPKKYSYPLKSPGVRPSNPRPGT
Outline: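 A FITC-conjugated probe compound was incubated with SOS in buffer, and its displacement was tracked as a change in fluorescence anisotropy across a test-compound dose range. IC50 came from a four-parameter variable-slope fit, and binding affinity was calculated from it.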

[1] = biological target: Ras GEF SOS (Son of Sevenless) (Homo sapiens, UniProt Q07889); assay: SOS-mediated nucleotide exchange on Ras (BODIPY-GDP fluorescence); format: biochemical; details: SOS-mediated exchange of BODIPY-GDP for GTP on Ras
Sequence of Ras GEF SOS (Son of Sevenless) (P01112 1-166 partner limits assumed, one chain of several): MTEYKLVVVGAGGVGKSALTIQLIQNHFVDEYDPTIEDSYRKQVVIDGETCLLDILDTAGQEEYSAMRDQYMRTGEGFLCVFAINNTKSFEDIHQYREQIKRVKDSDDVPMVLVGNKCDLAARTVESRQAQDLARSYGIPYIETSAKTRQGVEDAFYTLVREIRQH
Outline: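 Ras loaded with BODIPY-GDP was mixed in buffer with test compound, then GTP and SOS. Fluorescence change from labeled GDP/GTP exchange was followed over time, and rates came from single-exponential fits. EC50 came from a four-parameter fit of mean rate against compound concentration.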

SMILES	Ki (Son of Sevenless (SOS)) [nM]	EC50 [1] [nM]
Cc1cc(Cn2c(NCCN)nc3c(N4CCNCC4)cc(Cl)cc32)cc(C)c1F [Example 299, N^1-(6-chloro-1-(4-fluoro-3,5-dimethylbenzyl)-4-(piperazin-1-yl)-1H-benzo[d]imidazol-2-yl)ethane-1,2-diamine]	< 500	< 1000
Cc1cc(Cn2c(NCCN)nc3c(N4CCN(C)CC4)cc(Cl)cc32)cc(C)c1F [Example 300, N^1-(6-chloro-1-(4-fluoro-3,5-dimethylbenzyl)-4-(4-methylpiperazin-1-yl)-1H-benzo[d]imidazol-2-yl)ethane-1,2-diamine]	< 500	< 1000
Cc1cc(Cn2c(NCC3CNC3)nc3c(N4CCN(C)CC4)cc(Cl)cc32)cc(C)c1F [Example 301, N-(azetidin-3-ylmethyl)-6-chloro-1-(4-fluoro-3,5-dimethylbenzyl)-4-(4-methylpiperazin-1-yl)-1H-benzo[d]imidazol-2-amine]	< 500	1000 to 5000
Cc1cc(Cn2c(NCC3CNC3)nc3c(C4=CCNCC4)cc(Cl)cc32)cc(C)c1F [Example 302, N-(azetidin-3-ylmethyl)-6-chloro-1-(4-fluoro-3,5-dimethylbenzyl)-4-(1,2,3,6-tetrahydropyridin-4-yl)-1H-benzo[d]imidazol-2-amine]	500 to 1000	< 1000
Cc1cc(Cn2c(NCCN)nc3c(C4=CCNCC4)cc(Cl)cc32)cc(C)c1F [Example 303, N^1-(6-chloro-1-(4-fluoro-3,5-dimethylbenzyl)-4-(1,2,3,6-tetrahydropyridin-4-yl)-1H-benzo[d]imidazol-2-yl)ethane-1,2-diamine]	< 500	< 1000
Cc1cc(Cn2c(N3CCNCC3)nc3c(C4=CCNCC4)cc(Cl)cc32)cc(C)c1F [Example 304, 6-chloro-1-(4-fluoro-3,5-dimethylbenzyl)-2-(piperazin-1-yl)-4-(1,2,3,6-tetrahydropyridin-4-yl)-1H-benzo[d]imidazole]	< 500	< 1000
Cc1cc(Cn2c(NCC3CNC3)nc3c(-c4ccccc4Cl)cc(Cl)cc32)cc(C)c1F [Example 305, N-(azetidin-3-ylmethyl)-6-chloro-4-(2-chlorophenyl)-1-(4-fluoro-3,5-dimethylbenzyl)-1H-benzo[d]imidazol-2-amine]	< 500	< 1000
Cc1cc(Cn2c(NCCN)nc3c(-c4ccccc4Cl)cc(Cl)cc32)cc(C)c1F [Example 306, N^1-(6-chloro-4-(2-chlorophenyl)-1-(4-fluoro-3,5-dimethylbenzyl)-1H-benzo[d]imidazol-2-yl)ethane-1,2-diamine]	< 500	1000 to 5000
Cc1cc(Cn2c(N3CCNCC3)nc3c(-c4ccccc4Cl)cc(Cl)cc32)cc(C)c1F [Example 307, 6-chloro-4-(2-chlorophenyl)-1-(4-fluoro-3,5-dimethylbenzyl)-2-(piperazin-1-yl)-1H-benzo[d]imidazole]	< 500	1000 to 5000
Cc1cc(Cn2c(NCCN)nc3c(-c4ccccc4OC(C)C)cc(Cl)cc32)cc(C)c1F [Example 308, N^1-(6-chloro-1-(4-fluoro-3,5-dimethylbenzyl)-4-(2-isopropoxyphenyl)-1H-benzo[d]imidazol-2-yl)ethane-1,2-diamine]	< 500	1000 to 5000
Cc1cc(Cn2c(NCC3CNC3)nc3c(N4CCNCC4)cc(Cl)cc32)cc(C)c1F [Example 309, N-(azetidin-3-ylmethyl)-6-chloro-1-(4-fluoro-3,5-dimethylbenzyl)-4-(piperazin-1-yl)-1H-benzo[d]imidazol-2-amine]	< 500	1000 to 5000
Cc1cc(Cn2c(N3CCNCC3)nc3c(CC(=O)O)cc(Cl)cc32)cc(C)c1F [Example 310, 2-(6-chloro-1-(4-fluoro-3,5-dimethylbenzyl)-2-(piperazin-1-yl)-1H-benzo[d]imidazol-4-yl)acetic acid]	500 to 1000	< 1000
O=C(O)Cc1cc(Cl)cc2c1nc(N1CCNCC1)n2Cc1ccc(F)c(Cl)c1 [Example 311, 2-(6-chloro-1-(3-chloro-4-fluorobenzyl)-2-(piperazin-1-yl)-1H-benzo[d]imidazol-4-yl)acetic acid]	1000 to 5000	< 1000
Cc1cc(Cn2c(N3CCNCC3)nc3c(N4CCOCC4)cc(Cl)cc32)cc(C)c1F [Example 312, 4-(6-chloro-1-(4-fluoro-3,5-dimethylbenzyl)-2-(piperazin-1-yl)-1H-benzo[d]imidazol-4-yl)morpholine]	< 500	< 1000
Cc1cc(Br)c2nc(NCCN)n(Cc3cc(C)c(F)c(C)c3)c2c1 [Example 313, N^1-(4-bromo-1-(4-fluoro-3,5-dimethylbenzyl)-6-methyl-1H-benzo[d]imidazol-2-yl)ethane-1,2-diamine]	1000 to 5000	1000 to 5000
Cc1cc(OC2CCNCC2)c2nc(N3CCNCC3)n(Cc3cc(C)c(F)c(C)c3)c2c1 [Example 315, 1-(4-fluoro-3,5-dimethylbenzyl)-6-methyl-2-(piperazin-1-yl)-4-(piperidin-4-yloxy)-1H-benzo[d]imidazole]	1000 to 5000	< 1000
Cc1cc(OCCN2CCCC2)c2nc(N3CCNCC3)n(Cc3cc(C)c(F)c(C)c3)c2c1 [Example 316, 1-(4-fluoro-3,5-dimethylbenzyl)-6-methyl-2-(piperazin-1-yl)-4-(2-(pyrrolidin-1-yl)ethoxy)-1H-benzo[d]imidazole]	1000 to 5000	< 1000

More lines, now with the values ahead:

Ki (Son of Sevenless (SOS)) [nM]	EC50 [1] [nM]	SMILES
< 500	< 1000	Cc1cc(-c2ccc(CN)cc2)c2nc(N3CCNCC3)n(Cc3cc(C)c(F)c(C)c3)c2c1 [Example 318, (4-(1-(4-fluoro-3,5-dimethylbenzyl)-6-methyl-2-(piperazin-1-yl)-1H-benzo[d]imidazol-4-yl)phenyl)methanamine]
< 500	< 1000	Cc1cc(Cn2c(N3CCNCC3)nc3c(N4CCC(N)CC4)cc(Cl)cc32)cc(C)c1F [Example 319, 1-(6-chloro-1-(4-fluoro-3,5-dimethylbenzyl)-2-(piperazin-1-yl)-1H-benzo[d]imidazol-4-yl)piperidin-4-amine]
500 to 1000	< 1000	Cc1cc(OCCN)c2nc(NCCN)n(Cc3cc(C)c(F)c(C)c3)c2c1 [Example 320, N^1-(4-(2-aminoethoxy)-1-(4-fluoro-3,5-dimethylbenzyl)-6-methyl-1H-benzo[d]imidazol-2-yl)ethane-1,2-diamine]
< 500	< 1000	Cc1cc(N2CCN(C)CC2)c2nc(N3CCNCC3)n(Cc3cc(C)c(F)c(C)c3)c2c1 [Example 322, 1-(4-fluoro-3,5-dimethylbenzyl)-6-methyl-4-(4-methylpiperazin-1-yl)-2-(piperazin-1-yl)-1H-benzo[d]imidazole]
1000 to 5000	< 1000	Cc1ccc2nc(N3CCNCC3)n(Cc3cc(C)c(F)c(C)c3)c2c1 [Example 323, 1-(4-fluoro-3,5-dimethylbenzyl)-6-methyl-2-(piperazin-1-yl)-1H-benzo[d]imidazole]
500 to 1000	< 1000	Cc1cc(OC2CCNC2)c2nc(N3CCNCC3)n(Cc3cc(C)c(F)c(C)c3)c2c1 (stereo not shown) [Example 327, 1-(4-fluoro-3,5-dimethylbenzyl)-6-methyl-2-(piperazin-1-yl)-4-(pyrrolidin-3-yloxy)-1H-benzo[d]imidazole]
500 to 1000	< 1000	Cc1cc(OCC2CCNCC2)c2nc(NCCN)n(Cc3cc(C)c(F)c(C)c3)c2c1 [Example 330, N^1-(1-(4-fluoro-3,5-dimethylbenzyl)-6-methyl-4-(piperidin-4-ylmethoxy)-1H-benzo[d]imidazol-2-yl)ethane-1,2-diamine]
500 to 1000	< 1000	Cc1cc(OCCN2CCN(C)CC2)c2nc(NCCN)n(Cc3cc(C)c(F)c(C)c3)c2c1 [Example 331, N^1-(1-(4-fluoro-3,5-dimethylbenzyl)-6-methyl-4-(2-(4-methylpiperazin-1-yl)ethoxy)-1H-benzo[d]imidazol-2-yl)ethane-1,2-diamine]
> 5000	5000 to 30000	Cc1cc2nc(N3CCNC(=O)C3)n(Cc3cc(C)c(F)c(C)c3)c2cc1C [Example 332, 4-(1-(4-fluoro-3,5-dimethylbenzyl)-5,6-dimethyl-1H-benzo[d]imidazol-2-yl)piperazin-2-one]
